The results in this text go back to patent US20260159512A1, “BCAT2 INHIBITORS” (AGIOS PHARMACEUTICALS, INC., priority 2021, published 2026).

In general, IC50 refers to the concentration needed to halve the response being measured.

What all share (conditions): average where tested multiple times
The target of experiment [1] is T1, BCAT2 (Homo sapiens, UniProt O15382).
T1 sequence (O15382 28-392): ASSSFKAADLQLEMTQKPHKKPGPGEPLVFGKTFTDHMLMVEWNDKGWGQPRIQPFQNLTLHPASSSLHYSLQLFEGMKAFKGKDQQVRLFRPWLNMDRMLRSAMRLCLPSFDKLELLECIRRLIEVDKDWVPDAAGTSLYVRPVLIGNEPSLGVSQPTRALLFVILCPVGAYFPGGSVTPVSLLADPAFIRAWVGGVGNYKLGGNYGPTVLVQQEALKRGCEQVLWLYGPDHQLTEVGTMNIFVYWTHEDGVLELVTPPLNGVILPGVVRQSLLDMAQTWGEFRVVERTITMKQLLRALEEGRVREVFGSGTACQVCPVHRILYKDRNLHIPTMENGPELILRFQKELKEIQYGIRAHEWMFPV
As to the kind of experiment: BCAT2 in vitro cell inhibition using engineered A549 cells (KMV cell assay, 13C6-KMV by LC-MS/MS). Details: The result was an engineered A549 cell line that expressed endogenous BCAT2; endogenous in cells; host or cells: A549 cells with MUT and BCAT1 knocked out by CRISPR/CAS9; key to BCAT2 Cell Inhibition: A: less than or equal to 0.100 μM; B: greater than 0.100 and less than or equal to 0.500 μM; C: greater than 0.500 and less than or equal to 1.000 μM; d: greater than 1.000 μM; E: no fit. It counts as cell-based.

In experiment [2] the target is T1, BCAT2. Description: BCAT2 in vitro enzyme inhibition assay (resazurin/diaphorase-coupled fluorescence). It counts as biochemical. In a few lines: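 Coupled fluorescence readout: glutamate formed from L-leucine/α-ketoglutarate transamination drives GDH/NAD/diaphorase reduction of resazurin (Ex 540/Em 590). Human BCAT2 was first exposed 1 h at room temperature to compound, top final 100 μM in 3-fold, 10-point series; substrate reaction ran 1 h before SDS quench, in technical duplicate with DMSO max and enzyme-free min controls.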
In general terms: The colour change of resazurin is a common sign of viable cells or microbes.

The target of a further experiment is T2, hBCAT1 (Homo sapiens, UniProt P54687).
T2 sequence (P54687 1-386): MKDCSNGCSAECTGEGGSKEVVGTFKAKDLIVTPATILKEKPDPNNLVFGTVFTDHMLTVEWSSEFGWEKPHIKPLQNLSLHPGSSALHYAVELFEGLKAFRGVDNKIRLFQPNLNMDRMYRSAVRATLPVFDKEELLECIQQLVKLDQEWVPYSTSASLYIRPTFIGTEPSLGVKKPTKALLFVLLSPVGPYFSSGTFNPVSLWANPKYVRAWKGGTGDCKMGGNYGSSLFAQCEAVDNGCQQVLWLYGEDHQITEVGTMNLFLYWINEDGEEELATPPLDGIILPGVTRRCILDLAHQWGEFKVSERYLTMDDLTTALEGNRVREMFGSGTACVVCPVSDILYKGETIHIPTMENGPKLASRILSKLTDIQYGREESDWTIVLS
Description: BCAT1 in vitro enzyme inhibition assay (resazurin/diaphorase-coupled fluorescence). Format: biochemical. The protocol:
BCAT1 In Vitro Enzyme Inhibition Assay
Meanwhile the Substrate Mix was prepared.
Test Compound Preparation:
Test compounds were prepared at 50× final concentration in DMSO, 1 to 3 dilutions were made for 10 points. The compounds were added to the assay as a 1 to 50 dilution (1 μL in 50 μL) to yield a top assay final concentration of 100 μM, decreasing 3-fold for 10 points. […] All tests were performed in technical duplicate.
Where a compound was tested multiple times, the average value of the tests is reported.

As to `O=C(N[C@H]1CCC[C@@H](n2c(-c3ncccc3F)nc3cnc(-n4ccnn4)cc32)C1)c1ncc(C(F)F)s1` [Example 37, 5-(difluoromethyl)-N-((1S,3R)-3-(2-(3-fluoropyridin-2-yl)-6-(1H-1,2,3-triazol-1-yl)-1H-imidazo[4,5-c]pyridin-1-yl)cyclohexyl)thiazole-2-carboxamide], the IC50 was over 1000 nM at BCAT2 [1], 100 to 500 nM at BCAT2 [2] and 1000 to 5000 nM against hBCAT1.

In the case of `O=C(N[C@H]1CCC[C@@H](n2c(-c3ccccc3F)nc3cnc(-c4nn[nH]n4)cc32)C1)c1ccc(Cl)s1` [Example 82, 5-chloro-N-((1S,3R)-3-(2-(2-fluorophenyl)-6-(2H-tetrazol-5-yl)-1H-imidazo[4,5-c]pyridin-1-yl)cyclohexyl)thiophene-2-carboxamide], the IC50 on BCAT2 [1] was 500 to 1000 nM; at BCAT2 [2] it was at most 100 nM; against hBCAT1 it was under 500 nM.

Take `Cc1noc(C)c1-c1nc2cnc(-n3nccn3)cc2n1[C@@H]1CCC[C@H](NC(=O)c2ncc(C(F)F)s2)C1` [Example 47, 5-(difluoromethyl)-N-((1S,3R)-3-(2-(3,5-dimethylisoxazol-4-yl)-6-(2H-1,2,3-triazol-2-yl)-1H-imidazo[4,5-c]pyridin-1-yl)cyclohexyl)thiazole-2-carboxamide]: the “BCAT2 Cell Inhibition” value at BCAT2 [1] was “E”. For the same molecule, the values for the IC50 against BCAT2 [2] and against hBCAT1 were 500 to 1000 nM and over 5000 nM, respectively.

Regarding `CC(=O)N1CC(NC(=O)c2ccc(Cl)s2)CC(n2c(-c3ccccc3F)nc3cnc(-n4nccn4)cc32)C1` (stereo not drawn) [Example 132, N-(1-acetyl-5-(2-(2-fluorophenyl)-6-(2H-1,2,3-triazol-2-yl)-1H-imidazo[4,5-c]pyridin-1-yl)piperidin-3-yl)-5-chlorothiophene-2-carboxamide], the figures for the IC50 on BCAT2 [1], at BCAT2 [2] and against hBCAT1 were at most 100 nM, at most 100 nM and under 500 nM, respectively.

`Cn1ccc(-c2nc3cnc(-n4nccn4)cc3n2[C@@H]2CCC[C@H](NC(=O)c3ncc(C(F)F)s3)C2)n1` [Example 41, 5-(difluoromethyl)-N-((1S,3R)-3-(2-(1-methyl-1H-pyrazol-3-yl)-6-(2H-1,2,3-triazol-2-yl)-1H-imidazo[4,5-c]pyridin-1-yl)cyclohexyl)thiazole-2-carboxamide]: the IC50 against BCAT2 [1] is over 1000 nM; against BCAT2 [2], 100 to 500 nM; against hBCAT1, over 5000 nM.

As to `Cc1nc(-c2cc3c(cn2)nc(CC(C)C)n3[C@@H]2CCC[C@H](NC(=O)c3ncc(Cl)s3)C2)n[nH]1` [Example 165, 5-chloro-N-((1S,3R)-3-(2-isobutyl-6-(5-methyl-1H-1,2,4-triazol-3-yl)-1H-imidazo[4,5-c]pyridin-1-yl)cyclohexyl)thiazole-2-carboxamide], the IC50 on BCAT2 [1] was at most 100 nM; on BCAT2 [2], at most 100 nM; at hBCAT1, under 500 nM.

Turning to `O=C(NC1COCC(n2c(-c3ccccc3F)nc3cnc(-n4nccn4)cc32)C1)c1ncc(C(F)F)s1` (single isomer, unassigned) [Example 142, 5-(difluoromethyl)-N-(5-(2-(2-fluorophenyl)-6-(2H-1,2,3-triazol-2-yl)-1H-imidazo[4,5-c]pyridin-1-yl)tetrahydro-2H-pyran-3-yl)thiazole-2-carboxamide], the IC50 against BCAT2 [1] is at most 100 nM; at BCAT2 [2], at most 100 nM; on hBCAT1, under 500 nM.

Take `CC(C)Cc1nc2cnc(-n3nccn3)cc2n1[C@@H]1CCC[C@H](NC(=O)c2ncc(Cl)s2)[C@H]1O` [Example 227, 5-chloro-N-((1S,2R,3R)-2-hydroxy-3-(2-isobutyl-6-(2H-1,2,3-triazol-2-yl)-1H-imidazo[4,5-c]pyridin-1-yl)cyclohexyl)thiazole-2-carboxamide]: the values for the IC50 against BCAT2 [1], at BCAT2 [2] and at hBCAT1 were at most 100 nM, at most 100 nM and under 500 nM, respectively.

Consider `CC(C)Cc1nc2cnc(-c3cccc(F)n3)cc2n1[C@@H]1CCC[C@H](NC(=O)c2ncc(Cl)s2)[C@H]1O` [Example 209, 5-chloro-N-((1S,2R,3R)-3-(6-(6-fluoropyridin-2-yl)-2-isobutyl-1H-imidazo[4,5-c]pyridin-1-yl)-2-hydroxycyclohexyl)thiazole-2-carboxamide], for which the figures for the IC50 at BCAT2 [1], against BCAT2 [2] and on hBCAT1 were 100 to 500 nM, at most 100 nM and under 500 nM, respectively.

Consider `CC(C)Cc1nc2cnc(-c3ncccn3)cc2n1[C@@H]1CCC[C@H](NC(=O)c2ncc(Cl)s2)C1` [Example 331, 5-chloro-N-((1S,3R)-3-(2-isobutyl-6-(pyrimidin-2-yl)-1H-imidazo[4,5-c]pyridin-1-yl)cyclohexyl)thiazole-2-carboxamide], for which the half-inhibitory concentration (IC50) on BCAT2 [1] was at most 100 nM; against BCAT2 [2] it was at most 100 nM; on hBCAT1, under 500 nM.

As for `CC(C)Cc1nc2cnc(-c3nc[nH]n3)cc2n1[C@@H]1CCC[C@H](NC(=O)c2ncc(Cl)s2)C1` [Example 86, 5-chloro-N-((1S,3R)-3-(2-isobutyl-6-(1H-1,2,4-triazol-3-yl)-1H-imidazo[4,5-c]pyridin-1-yl)cyclohexyl)thiazole-2-carboxamide], the results for the IC50 on BCAT2 [1], against BCAT2 [2] and against hBCAT1 were at most 100 nM, at most 100 nM and under 500 nM, respectively.

Regarding `O=C(N[C@H]1CCC[C@@H](n2c(-c3ccccn3)nc3cnc(-n4ccnn4)cc32)C1)c1ncc(C(F)F)s1` [Example 34, 5-(difluoromethyl)-N-((1S,3R)-3-(2-(pyridin-2-yl)-6-(1H-1,2,3-triazol-1-yl)-1H-imidazo[4,5-c]pyridin-1-yl)cyclohexyl)thiazole-2-carboxamide], the “BCAT2 Cell Inhibition” value at BCAT2 [1] is listed as “E”. Further, the results for the IC50 on BCAT2 [2] and against hBCAT1 were 100 to 500 nM and over 5000 nM, respectively.

As to `CO[C@@H]1C[C@@H](NC(=O)c2ccc(Cl)s2)C[C@@H](n2c(-c3ccccc3F)nc3cnc(-c4nc[nH]n4)cc32)C1` (stereo in doubt) [Example 412, 5-chloro-N-((1S,3R,5R)-3-(2-(2-fluorophenyl)-6-(1H-1,2,4-triazol-3-yl)-1H-imidazo[4,5-c]pyridin-1-yl)-5-methoxycyclohexyl)thiophene-2-carboxamide], the IC50 against BCAT2 [1] was at most 100 nM; against BCAT2 [2], at most 100 nM; on hBCAT1 it was under 500 nM.

`CC(C)Cc1nc2cnc(-c3nc[nH]n3)cc2n1[C@@H]1CCC[C@H](NC(=O)c2ccc(C(F)(F)F)s2)C1` [Example 342, N-((1S,3R)-3-(2-isobutyl-6-(1H-1,2,4-triazol-3-yl)-1H-imidazo[4,5-c]pyridin-1-yl)cyclohexyl)-5-(trifluoromethyl)thiophene-2-carboxamide]: the IC50 at BCAT2 [1] was at most 100 nM; at BCAT2 [2] it was at most 100 nM; against hBCAT1 it was under 500 nM.

As to `O=C(N[C@H]1CCC[C@@H](n2c(-c3ncccc3F)nc3cnc(-c4nc[nH]n4)cc32)C1)c1ncc(Cl)s1` [Example 175, 5-chloro-N-((1S,3R)-3-(2-(3-fluoropyridin-2-yl)-6-(1H-1,2,4-triazol-3-yl)-1H-imidazo[4,5-c]pyridin-1-yl)cyclohexyl)thiazole-2-carboxamide], the results for the IC50 against BCAT2 [1], against BCAT2 [2] and against hBCAT1 were at most 100 nM, at most 100 nM and under 500 nM, respectively.

`O=C(N[C@H]1CCC[C@@H](n2c(-c3ccccc3F)nc3cnc(-c4ccccc4)cc32)C1)c1ncc(Cl)s1` [Example 204, 5-chloro-N-((1S,3R)-3-(2-(2-fluorophenyl)-6-phenyl-1H-imidazo[4,5-c]pyridin-1-yl)cyclohexyl)thiazole-2-carboxamide]: the IC50 is 100 to 500 nM on BCAT2 [1], at most 100 nM on BCAT2 [2] and 500 to 1000 nM on hBCAT1.

As for `O=C(N[C@H]1CCC[C@@H](n2c(-c3ccccn3)nc3cnc(-c4nc[nH]n4)cc32)C1)c1ncc(Cl)s1` [Example 184, 5-chloro-N-((1S,3R)-3-(2-(pyridin-2-yl)-6-(1H-1,2,4-triazol-3-yl)-1H-imidazo[4,5-c]pyridin-1-yl)cyclohexyl)thiazole-2-carboxamide], the IC50 is at most 100 nM against BCAT2 [1], at most 100 nM on BCAT2 [2] and under 500 nM against hBCAT1.
